Laboratory results taken from patent US11092596B2, “Material and method to screen proteasome stimulators” (Purdue Research Foundation, priority 2017, dated 2021).

Columns and labels:
[1] = molecular target: T1, chymotrypsin-like activity of the 20S CP (Homo sapiens, UniProt P28074); experiment: Kinetic assay, Suc-LLVY-AMC reporter hydrolysis by purified 20S CP; format: biochemical; conditions: 25 μM compound, triplicate; hit = at least 50% increase
T1 construct: 5 μL purified 20S proteasome (90 nM in Tris-HCl) was added to the control and test wells
Procedure: Plate preparation for the kinetic assay was performed similarly for all assays. All 96-well plates contained the following in triplicate: reporter background, containing reporter only, and control wells, containing reporter and purified 20S CP. It was determined that each well will contain a total volume of 50 μL. To each well was added 40 μL of the coumarin or FRET reporters (in Tris-HCl, 50 mM, pH 7.7). To the reporter background wells was added 7.5 μL Tris-HCl and 2.5 μL of the solvent in which the compound of interest was dissolved or diluted. Similarly, to the control wells was added 2.5 μL Tris-HCl and 2.5 μL of the solvent in which the compound of interest was dissolved or diluted. To the test wells was added 2.5 μL Tris-HCl and 2.5 μL of the compound of interest at a predetermined concentration. Immediately prior to running the assay on the Synergy 4 Plate Reader, 5 μL purified 20S proteasome (90 nM in Tris-HCl) was added to the control and test wells.
The Synergy 4 Plate Reader was set to heat the plate at 37° C. and read fluorescence every 2 min over a 40 min period. The excitation and emission wavelengths were set according to the reporter. For the FRET reporter, the excitation and emission wavelengths were set to 335 nm and 493 nm, respectively, corresponding to the excitation and emission wavelengths of the Edans fluorophore. […]
Sodium dodecyl sulfate (SDS) was used to test the effect stimulating the 20S proteasome has on the hydrolysis of the FRET reporters. The appropriate concentration of SDS to use in the kinetic assay was determined using the small chymotrypsin-like activity reporter, Suc-LLVY-AMC (SEQ ID NO: 4). […] In triplicate, the following final concentrations of SDS were analyzed for the effect each has on the activity of the 20S proteasome: 4000 μM, 2000 μM, 1000 μM, 500 μM, 250 μM, 125 μM, and 0 μM, the basal activity of the 20S proteasome. […] Immediately prior to reading the plate with the Synergy 4 plate reader, 5 μL purified 20S proteasome (90 nM in Tris-HCl) was added to the wells at a final concentration of 9 nM per well.
The Synergy 4 Plate Reader was set to heat the plate at 37° C. and read fluorescence every 2 min over a 1 hr period. […] The resulting data in relative fluorescence units (RFU) was analyzed using GraphPad Prism and was plotted against time in minutes. […] Based on the resulting curve and the hyperbolic curve obtained using 1000 μM SDS (FIG. 11b), it was determined that 500 μM SDS was the appropriate concentration to use to test the effect stimulating the 20S proteasome has on the hydrolysis of the FRET reporters.
Stimulation of the 20S proteasome with SDS was determined using both the coumarin and FRET reporters for the chymotrypsin-like and trypsin-like activities of the 20S CP. […]

[2] = molecular target: T2, chymotrypsin-like activity of the 26S proteasome (Homo sapiens, UniProt P28074); experiment: Kinetic assay, CT-L FRET reporter with 26S proteasome; format: biochemical; conditions: 25 μM compound
T2 construct: 5 μL purified 26S proteasome (62.5 μg/mL in Tris-HCl) was added to the control and test wells
Procedure: Compounds 1, 2, and 3 were screened with the 26S proteasome in triplicate using the CT-L FRET reporter.
To each well was added 40 μL 20 μM CT-L FRET reporter (in Tris-HCl, 50 mM, pH 7.7). To the reporter background wells was added 5 μL Tris-HCl and 5 μL 1:1 Tris-HCl:DMSO. Similarly, to the control wells was added 5 μL 1:1 Tris-HCl:DMSO. To the test wells was added 2.5 μL Tris-HCl and 2.5 μL of a 500 μM solution of the compound of interest in DMSO. […] Immediately prior to running the assay on the Synergy 4 Plate Reader, 5 μL purified 26S proteasome (62.5 μg/mL in Tris-HCl) was added to the control and test wells.
The assay was performed using the Synergy 4 plate reader as described for the general screening kinetic assay procedure.

Row | Compound | primary hit status with the 4-amino acid reporter Suc-LLVY-AMC [1] | ability to stimulate the 26S proteasome's CT-L activity [2]
1 | Cc1c(C)c2c(c(C)c1OC(=O)CCC(=O)O)CC[C@@](C)(CCC[C@H](C)CCC[C@H](C)CCCC(C)C)O2 [Compound 3, vitamin E succinate] | would not have been considered primary hits | Neither molecules 2 or 3 affected the rate
2 | C[C@H]1[C@H](C)CC[C@]2(C(=O)O)CC[C@]3(C)C(=CC[C@@H]4[C@@]5(C)CC[C@H](O)C(C)(C)[C@@H]5CC[C@]43C)[C@H]12 [Compound 2, ursolic acid] | would not have been considered primary hits | Neither molecules 2 or 3 affected the rate
